# PMC5474674, “D-BMAP18 Antimicrobial Peptide Is Active In vitro, Resists to Pulmonary Proteases but Loses Its Activity in a Murine Model of Pseudomonas aeruginosa Lung Infection” (Frontiers in Chemistry, 2017)
# Where a SMILES comes first, the peptide text is derived from it.
# Columns and labels:
# [1] = cited from earlier work
# Method: D-BMAP18 was synthesized to provide a molecule more resistant to enzymatic cleavage. The stability of D-BMAP18 was tested in murine BAL fluid.
# [2] = test system: P. aeruginosa RP73; assay type: in vivo, mouse; conditions: 10 mg/kg intratracheal, day 1
# Method: C57/Bl6NCrl mice (n = 8/group) were intratracheally challenged with 1 × 10^7 cells P. aeruginosa RP73 clinical strain, and 5 min later a single dose of D-BMAP18 at different concentrations (0.5, 1, and 2 mg/kg) was intratracheally administrated. Sterile distilled water alone or tobramycin [10 mg/kg] (Sigma-Aldrich S.r.l.), were used respectively as negative and positive control. […] Subsequently, lungs were homogenized (24,000 rpm) on ice in 1 ml of sterile PBS by using Ultra-Turrax T25-Basic homogenizer (IKA-Werke GmbH & Co. KG, Germany). Ten-fold serial dilutions of lung homogenates were plated on MH agar (Oxoid SpA), and the number of colony-forming units (CFU) was counted after incubation at 37°C for 24 h.
SMILES,degradation in murine BAL after 10 min [1],time within which peptide is degraded by pulmonary proteases in murine BAL [1] [min],effect on bacterial load in murine lungs [2],mortality ([2]; 1 out of 8 mice) [%]
CC(C)C[C@H](NC(=O)[C@H](CCCCN)NC(=O)[C@H](CCCCN)NC(=O)[C@H](Cc1ccccc1)NC(=O)[C@H](CC(C)C)NC(=O)[C@H](CCCCN)NC(=O)[C@H](CCCCN)NC(=O)[C@H](Cc1ccccc1)NC(=O)[C@H](CCCCN)NC(=O)[C@H](CCCCN)NC(=O)[C@H](CCCNC(=N)N)NC(=O)[C@H](Cc1ccccc1)NC(=O)[C@H](CCCNC(=N)N)NC(=O)[C@H](CCCCN)NC(=O)[C@H](Cc1ccccc1)NC(=O)[C@H](CCCNC(=N)N)NC(=O)CN)C(=O)N[C@@H](CO)C(N)=O [L-BMAP18] (H-GRFKRFRKKFKKLFKKLS-NH2),most of the L-BMAP-18 was digested,≤ 20,,
NC[C@H]1O[C@H](O[C@H]2[C@H](O)[C@@H](O[C@H]3O[C@H](CO)[C@@H](O)[C@H](N)[C@H]3O)[C@H](N)C[C@@H]2N)[C@H](N)C[C@@H]1O [tobramycin],,,weak effect,12.5
